We go through 3 compounds from patent publication US6586596B2, “Acetylcholine enhancers” (priority 1998, dated 2003).

Structures are written as SMILES.

Data set [1] addresses T1, peripheral 5-HT3 receptor (Rattus norvegicus, UniProt P35563).
T1 construct: from tissue; host or cells: whole anesthetized rat (peripheral receptors)
T1 sequence (P35563 24-483): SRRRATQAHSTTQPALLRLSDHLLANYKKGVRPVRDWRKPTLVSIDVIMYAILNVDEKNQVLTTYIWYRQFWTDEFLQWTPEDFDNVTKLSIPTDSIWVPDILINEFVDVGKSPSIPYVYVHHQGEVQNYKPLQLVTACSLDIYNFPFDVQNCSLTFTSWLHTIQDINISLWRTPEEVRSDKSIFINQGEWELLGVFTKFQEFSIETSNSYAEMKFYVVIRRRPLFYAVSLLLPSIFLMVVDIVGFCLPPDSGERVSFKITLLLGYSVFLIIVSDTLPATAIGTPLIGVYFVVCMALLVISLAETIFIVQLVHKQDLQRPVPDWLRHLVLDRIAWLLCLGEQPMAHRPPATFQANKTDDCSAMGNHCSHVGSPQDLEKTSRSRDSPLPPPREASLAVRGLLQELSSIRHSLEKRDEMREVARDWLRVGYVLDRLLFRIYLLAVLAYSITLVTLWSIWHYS
As to the kind of experiment: 5-HT-evoked von Bezold-Jarish Effect (B.J.E.) in anesthetized rats. In kind it is in vivo. To be noted: Cm.A 3 to 10 mg/kg; for inhibition of 5-HT-evoked B.J.E. (reflex bradycardia): i.v. pretreatment, E2020 0.1~1 mg/kg, 5-HT 20 μg/kg i.v.; for blood pressure, heart rate and other signs: i.v., THA 10 mg/kg, E2020 higher than 1 mg/kg, data not shown. As for the experimental part: A bolus i.v. injection of serotonin (5-HT) (20 μg/kg) caused reflex bradycardia transiently (von Bezold—Jarish Effect: B.J.E.) via activation of peripheral 5-HT3 receptor in anesthetized rats.

The subject of data set [2] is BF-lesioned rats. As to the kind of experiment: Water maze, BF lesion-induced deficit in spatial learning. To be noted: oral; Cm.A 0.3, 1.0 and 3.0 mg/kg/day, THA 1.0 mg/kg/day, E2020 0.3 and 1.0 mg/kg/day.
Description: For each training trial, the rat was placed in the water (22° C.) such that the animal faced the wall of a circular pool (150 cm in diameter, 45 cm in height), and started at one of five starting points (selected randornly). In each trial, the latency period to escape onto the hidden platform (fixed in the middle of one quadrant, 2 cm below the surface of water) was recorded. These procedures were repeated once or twice a day during the experimental period.
Data set [3] has as its target T2, 5-HT3 receptor (Mus musculus, UniProt P23979).
T2 construct: The receptor source was NIE-115 cells; host or cells: NIE-115 cells
T2 sequence (P23979 24-489): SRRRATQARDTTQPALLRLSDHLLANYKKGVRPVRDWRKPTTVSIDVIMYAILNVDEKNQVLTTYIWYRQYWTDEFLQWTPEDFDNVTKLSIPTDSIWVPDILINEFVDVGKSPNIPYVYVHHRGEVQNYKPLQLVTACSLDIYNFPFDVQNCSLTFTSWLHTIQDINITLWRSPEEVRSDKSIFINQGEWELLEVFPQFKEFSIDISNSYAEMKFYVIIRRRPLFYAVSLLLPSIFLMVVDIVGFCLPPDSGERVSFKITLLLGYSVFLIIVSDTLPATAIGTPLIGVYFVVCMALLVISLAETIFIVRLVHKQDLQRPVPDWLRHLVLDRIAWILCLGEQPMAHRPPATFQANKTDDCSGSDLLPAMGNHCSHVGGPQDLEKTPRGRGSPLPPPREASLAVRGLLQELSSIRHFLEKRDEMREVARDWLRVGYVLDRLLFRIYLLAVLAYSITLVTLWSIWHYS
In words: serotonin 5-HT3 binding assay (NovaScreen), NIE-115 cells. To be noted: 20 mM HEPES pH 7.4, 150 mM NaCl, 25° C., 60 minutes. How it is done:
Binding affinity of a variety of compounds, including Cm.A, for the 5-HT3 receptor was investigated using a commercially available serotonin 5-HT3 binding assay (NovaScreen, Hanover, Md.). The receptor source was NIE-115 cells (See Lunnis, S. C. R. and Kilparick, G. J., 189: Evr. Jrnl. Pharmacol. 223 (1990); and Hoyer, D. and Heijt, H. C., 33 Mol. Pharmacol., 303 (1988)). The reference compound utilized was “MDL 72222,” a 5-HT3 receptor antagonist. Reactions were carried out in 20 mM HEPES (pH 7.4) containing 150 mM NaCl at 25° C. for 60 minutes. The reaction was terminated by rapid vacuum filtration onto glass fiber filters. Radioactivity trapped onto the filters was determined and compared with the control values.

Data set [4] has as its system Cynomologous monkeys. In words: Hepatotoxic analysis, four-week oral study. It is filed as in vivo. As for the experimental part:
During the testing period, these animals were dosed with three different regimens: first, animals were dosed with 10 mg/kg/day for 7 days, followed by 32 days-washout period, second, animals were dosed with 5 mg/kg/day for 14 days, and thereafter the animals were dosed with 10 mg/kg/day for 7 days. The following parameters were examined: body weight, clinical signs, food consumption, blood biochemistry (GOT, GPT, ALP, LDH, γ-GTP, ChE, Bil, T.Pro, Alb, A/G ratio, T.Cho, NEFA, TG).

The test system of data set [5] is extracellular levels of ACh in striatum. In words: ACh release in striatum, microdialysis in freely moving rats. In kind it is in vivo. How it is done: ACh content in perfusate obtained from striatum (Bregma, A: 0.2 mm, L: 3.0 mm, H: 4.0 mm) of brain were continuously detected by means of HPLC and ECD through the microdialysis system using freely moving rats. See Messamore, E., et al, 32 Neuropharmacol. […] After an equilibration period of more than 2 hours, five fractions were allowed to obtain basal ACh content. Compounds were injected i.p., and thereafter, a microdialytic analysis was conducted for 3 hours.

In data set [6] the test system is extracellular levels of ACh in hippocampus. In words: ACh release in hippocampus, microdialysis in freely moving rats. It is filed as in vivo. How it is done:
ACh content in perfusate obtained from hippocampus (Bregma, A: −5.8 mm, L: 5.0 mm, H: 4.0 mm) of brain were continuously detected by means of HPLC and ECD through the microdialysis system using freely moving rats (See Messamore and Kawashima, supra). After an equilibration period, five fractions were allowed to obtain basal ACh content. Test substances were injected i.p., and thereafter, microdialytic analysis was conducted for 3 hr.

For data set [7], the system named is scopolamine-induced spatial learning deficit. In words: Water maze, scopolamine-induced deficit in spatial learning. It is filed as in vivo, rats. To be noted: p.o. 60 minutes before each trial; Cm.A 1.0 mg/kg/day; scopolamine 0.5 mg/kg i.p. How it is done: A total of 6 trials (2 trials on 1st day, and 1 trial after 2nd day) were conducted to observe the effects of the test compounds. Scopolamine (0.5 mg/kg, i.p.) and the test compounds (p.o.) were administered 30 and 60 minutes before each trial, respectively.

The test system of data set [8] is Cynomologous monkeys. In words: Hepatotoxic analysis, two-week oral study. It is filed as in vivo. To be noted: monkey, in vivo, po, 5 mg/kg/day. The source says:
The following parameters were examined: body weight, clinical signs, food consumption, blood biochemistry (GOT, GPT, ALP, LDH, γ-GTP, ChE, Bil, T.Pro, Alb, A/G ratio, T.Cho, NEFA, TG). After the administration period, the animals were sacrificed and autopsied. Organs and tissues were weighed, then examined histopathologically.

For `COc1cc2c(cc1OC)C(=O)C(CC1CCN(Cc3ccccc3)CC1)C2` (stereo not drawn) [E2020, donepezil], in data set [1], the “inhibition of 5-HT-evoked B.J.E. (reflex bradycardia)” value is “no inhibitory effect on B.J.E”; the “blood pressure, heart rate and other signs” value is “caused hypertension, salivation and tremor”. In addition, the “deficit of spatial learning (escape latency)” value in data set [2] was “also improved this type of deficit”.

In general, IC50 refers to the concentration at which inhibition is half-maximal. A word on the Ki: it is a dissociation constant, usually derived from enzyme kinetics or from competition with a known ligand. As to `CN1[C@@H]2CC[C@H]1C[C@@H](OC(=O)c1cc(Cl)cc(Cl)c1)C2` [MDL 72222], the IC50 in data set [3] (read-out: IC50) came to 8.99 nM. Further, the inhibition constant Ki in data set [3] (read-out: Ki) turned out to be 4.14 nM.

`Nc1c2c(nc3ccccc13)CCCC2` [THA, 1,2,3,4-tetrahydro-9-acridinamine, reference compound]: in data set [4] (F, oral, four weeks), the Blood biochemistry result is “↓: CHE”. In data set [4] (monkey, in vivo, po), the “Clinical signs softstool” value was “+++”; the “clinical signs” value is “severe vomiting and soft stools or diarrhea”; the “food consumption and body weight” value is “decrease in body weight and food consumption”. The “blood biochemical tests” value in data set [4] (oral, four weeks) is “increase in TG and NEFA, decrease in ChE and T.Cho”. In data set [5] (rat, in vivo, ip), the “centrally acting cholinergic symptoms (tremor, chewing and yawning)” value is given as “greater severity as compared with Cm.A”. Besides, the “increase of ACh content compared with Cm.A” value in data set [5] (striatum, young rats, i.p.) is “increased the ACh content more potently and long-lastingly than Cm.A”. Further, the “increase of ACh content compared with Cm.A” value in data set [6] (hippocampus, i.p.) is reported as “somewhat weak”. The “centrally acting cholinergic symptoms (tremor, chewing and yawning)” value in data set [6] (rat, in vivo, ip) is listed as “more apparent as compared with Cm.A”. The “deficit in spatial learning (escape latency)” value in data set [7] is “no significant effect”. In addition, in data set [8], the Clinical signs softstool result is reported as “−”, the Clinical signs vomiting result is given as “+” and the Food consumption entry is “−”. For the same compound, in data set [1], the “inhibition of 5-HT-evoked B.J.E. (reflex bradycardia)” value is reported as “slight tendency to decrease the reflex”; the “blood pressure, heart rate and other signs” value is “caused severe hypertension, salivation and tremor”. Further, the “deficit of spatial learning (escape latency)” value in data set [2] was “also improved this type of deficit”.
